# Values of other authors in patent US20190375786A1, “STABLE PEPTIDES AND METHODS OF USE THEREOF” (Fred Hutchinson Cancer Research Center, priority 2016, published 2019).
# Positions of bridges follow the written chain, without caps; N, C: chain ends. Residues, ends and D or L forms follow the SMILES beside them.
# Details: oral administration; cited from earlier work
compound,measurement,value
"C[C@@H]1NC(=O)[C@@H]2CCCN2C(=O)[C@H](CC(N)=O)NC(=O)[C@@H]2CSSC[C@H](N)C(=O)N[C@H]3CSSC[C@H](NC1=O)C(=O)N[C@@H]([C@@H](C)O)C(=O)NCC(=O)N[C@H](C(=O)N[C@@H](Cc1ccc(O)cc1)C(=O)O)CSSC[C@H](NC(=O)[C@H](Cc1ccc(O)cc1)NC(=O)[C@H](CCC(=O)O)NC3=O)C(=O)N2 [linaclotide] (H-CCEYCCNPACTGCY-OH; disulfide 1-6, 2-10, 5-13)",systemic absorption into the plasma,not significantly systemically absorbed
